Source: ChEMBL document CHEMBL1134727, “Synthesis and structure-activity relationship of diarylamide derivatives as selective inhibitors of the proliferation of human coronary artery smooth muscle cells” (Bioorg Med Chem Lett, 2001)

How the values were obtained:
[1] = Inhibition of human coronary artery smooth muscle cells (SMC's) proliferation, induced by platelet-derived growth factor (PDGF-BB) 20 ng mL.; type: functional
[2] = Evaluated for inhibition of proliferation of human coronary artery endothelial cells (ECs), induced by 5 % FBS.; type: functional, cell-based; conditions: Endothelial cell
[3] = Ratio of inhibitory activity on proliferation of human coronary artery smooth muscle cells to that of human coronary artery endothelial cells; type: functional, Endothelial cell

| Structure (SMILES) | IC50 [1] | IC50 [2] | Ratio [3] |
| --- | --- | --- | --- |
| COc1cc(C(=O)Nc2ccc(Cl)cc2C(N)=O)cc(OC)c1OC | > 2000 nM | – | – |
| CCOC(=O)c1ccccc1NC(=O)/C=C/c1ccc(OC)c(OC)c1 | > 50000 nM | 9500 nM | – |
| CCOC(=O)c1cc(OC)c(OC)cc1NC(=O)c1cc(OC(C)=O)c(OC(C)=O)c(OC(C)=O)c1 | > 2000 nM | – | – |
| COc1cc(C(=O)Nc2cc(C)ccc2C(N)=O)cc(OC)c1OC | > 2000 nM | – | – |
| COc1cc(C(=O)Nc2cc([N+](=O)[O-])ccc2C(N)=O)cc(OC)c1OC | 1600 nM | < 2000 nM | – |
| CCOC(=O)c1cc(OC)c(OC)cc1NC(=O)c1ccc(OC(C)=O)c(OC(C)=O)c1 | 2200 nM | – | – |
| CCOC(=O)c1cc(OC)c(OC)cc1NC(=O)c1ccc(O)c(N)c1 | > 2000 nM | – | – |
| COc1ccc(C(=O)Nc2cc(OC)c(OC)cc2C(=O)O)cc1OC | > 2000 nM | – | – |
| COc1cc(C(=O)Nc2ccccc2C(N)=O)cc(OC)c1OC | > 2000 nM | – | – |
| CCOC(=O)c1cc(OC)c(OC)cc1NC(=O)c1ccc(OC(C)=O)c(OC)c1 | 2800 nM | – | – |
| COc1ccc(C(=O)Nc2cc(OC)c(OC)cc2C(N)=O)cc1OC | 720 nM | > 10000 nM | >14 |
| CCOC(=O)c1cc(OC)c(OC)cc1NC(=O)c1ccc(OC)cc1 | 610 nM | < 2000 nM | – |
| COc1ccc(NC(=O)c2ccc(OC)c(OC)c2)cc1OC | > 2000 nM | – | – |
| CNC(=O)c1cc(OC)c(OC)cc1NC(=O)c1ccc(OC)c(OC)c1 | > 2000 nM | – | – |
| CCOC(=O)c1cc(OC)c(OC)cc1NC(=O)c1ccccc1OC | 800 nM | 3800 nM | 5 |
| CCOC(=O)c1cc(OC)c(OC)cc1NC(=O)c1ccc(OC)c(OC)c1 | 850 nM | 6000 nM | 7 |
| COc1cc(C(=O)Nc2cc(N)ccc2C(N)=O)cc(OC)c1OC | > 2000 nM | – | – |
| COc1ccc(C(=O)Nc2cc(OC)c(OC)cc2C(=O)N(C)C)cc1OC | > 2000 nM | – | – |
| COc1ccc(C(=O)Nc2cc(OC)c(OC)cc2C#N)cc1OC | > 2000 nM | – | – |
| COc1cc(C(=O)Nc2cc(F)c(F)cc2C(N)=O)cc(OC)c1OC | 2000 nM | > 10000 nM | >5 |
| CCOC(=O)c1cc(OC)c(OC)cc1NC(=O)c1ccc(OC(C)=O)cc1 | 1300 nM | 5200 nM | 4 |
| CCOC(=O)c1cc(OC)c(OC)cc1NC(=O)c1ccc(OC)c(OC)c1OC | 410 nM | 2900 nM | 7 |
| CCOC(=O)c1cc(OC)c(OC)cc1NC(=O)c1cc(OC)c(OC)c(OC)c1 | 310 nM | 4600 nM | 15 |
| CCOC(=O)c1cc(OC)c(OC)cc1NC(=O)c1ccc(O)c([N+](=O)[O-])c1 | 1800 nM | 7200 nM | 4 |
| COc1ccc(/C=C/C(=O)Nc2ccccc2C(N)=O)cc1OC | 16700 nM | 34500 nM | 2 |
| CCOC(=O)c1cc(OC)c(OC)cc1NC(=O)c1cc(OC)c(OC(C)=O)c(OC)c1 | 3100 nM | – | – |
| CCOC(=O)c1cc(OC)c(OC)cc1NC(=O)c1cccc(OC)c1 | 1600 nM | 6100 nM | 4 |
| CCOC(=O)c1cc(OC)c(OC)cc1NC(=O)Cc1ccc(OC)c(OC)c1 | 800 nM | 4700 nM | 6 |
| CCOC(=O)c1cc(OC)c(OC)cc1NC(=O)/C=C\c1ccc(OC)c(OC)c1 | 1200 nM | 4100 nM | 4 |
| COc1ccc(/C=C/C(=O)Nc2ccccc2C(=O)O)cc1OC [TRANILAST] | 24500 nM | 19100 nM | 0.8 |
